In patent US9463211B2, “Skin salve for treating intertrigo” (priority 2007, dated 2016):

Test system: intertrigo
Assay: Topical application of the skin salve to patients suffering from intertrigo
Format: in vivo, human
Conditions: Example 2: person with diabetes, underside of breasts; before use of the skin salve
Procedure: In this experiment the skin salve made in Example 1 was evaluated on a person suffering from diabetes and intertrigo on the underside of their breasts. The intertrigo had caused the skin to be inflamed, burned, and was raw in some areas. This skin condition was painful and was aggravated by the patient's bra, heat, and sweat. Additionally, the intertrigo was an unsightly rash.
This patient had treated their intertrigo with a variety of over-the-counter salves and powders without success.
This patient topically applied the skin salve of this invention which was made by the procedure described in Example 1 to the inflamed skin under their breasts on two consecutive evenings after taking a bath. […]
In this experiment the skin salve made in Example 1 was evaluated on another person suffering from diabetes and intertrigo on the underside of their breasts. […]
In this experiment the skin salve made in Example 1 was evaluated on another person suffering from intertrigo on the underside of their breasts. […]
In this experiment the skin salve made in Example 1 was evaluated on a person suffering from intertrigo on the underside of their breasts. […]
In this experiment the skin salve made in Example 1 was evaluated on a person suffering from intertrigo on the underside of their breasts and the underside of their belly. […]

CC(C)O [isopropyl alcohol]
effect on intertrigo of the patient's earlier treatments: without any relief
